Assay: Solubilization of CoQ-10 in solvent (monoterpenes; prior liquid delivery solvents)
Assay type: physicochemical
Conditions: without heating or with gentle warming; ambient temperatures
Text: The present invention pertains to the surprising discovery that ubiquinone (CoQ-10) and related analogs thereof can be readily dissolved in varying concentrations in monoterpenes. Generally, until the present discovery, most CoQ-10 liquid delivery methods could solubilize only up to about 5% by weight of the CoQ-10 in the “solvent”. Typical solvents included various oils or the CoQ-10 was held in suspension. The present invention provides the ability to solubilize CoQ-10 in monoterpenes in concentrations of up to about 60% (weight to weight) without the need to aggressively heat the solution or with gentle warming. In particular, the solubilization of the CoQ-10 with monoterpenes can be accomplished at ambient temperatures.
Generally, until the present discovery, most CoQ-10 liquid delivery methods could solubilize only up at most about 10% by weight of the CoQ-10 in the solvent. Typical solvents included oils or the CoQ-10 was held in an aqueous suspension. Alternatively, the CoQ-10 was provided as a solid in a tablet or powder.
The present invention provides the ability to solubilize CoQ-10 and analogs thereof in monoterpenes, as defined herein, in concentrations of up to about 60% (weight to weight) without the need to heat the solution. In one aspect, the monoterpene solubilizes CoQ-10 from about 0.1 percent by weight to about 45 percent by weight. […]

Compound: COC1=C(OC)C(=O)C(C/C=C(\C)CC/C=C(\C)CC/C=C(\C)CC/C=C(\C)CC/C=C(\C)CC/C=C(\C)CC/C=C(\C)CC/C=C(\C)CC/C=C(\C)CCC=C(C)C)=C(C)C1=O [CoQ-10]
- CoQ-10 solubilized in monoterpenes: up to 60 % (weight to weight)
